From patent US20150258139A1, “METHODS FOR TREATMENT OF CANCER USING LIPOPLATIN” (REGULON, INC., priority 2012, published 2015)
Several values for one entry are separate records, joined by “and”; a condition that tells them apart may be missing. Equal entries are not always repeated. Where two headings read alike, the source gives them in different places.

Assays:
[1] = tested on: F98 glioma tumor; assay type: in vivo; details: drug alone
[2] = tested on: F98 glioma tumor
[3] = tested on: F98 glioma tumor; assay: Mean survival time of F98 glioma bearing Fischer rats, platinum drugs combined with Gamma Knife irradiation; assay type: in vivo
[4] = tested on: metastatic colorectal cancer; details: cited from earlier work
[5] = tested on: pancreatic cancer; details: gemcitabine alone; cited from earlier work
[6] = tested on: Nonmetastatic Castrate-Resistant Prostate Cancer; details: monotherapy (Ogita et al); cited from earlier work
[7] = IA + BBBD, 24 h after administration, ± SD
[8] = IA + BBBD, 24 h after administration, ± SD, listed as carboplatin
[9] = IA, 24 h after administration, ± SD
[10] = IA, 24 h after administration, ± SD, listed as carboplatin
[11] = IV, 24 h after administration, ± SD

N.N.O=C([O-])C1(C(=O)[O-])CCC1.[Pt+2] [Carboplatin]
mean survival time ([1]; IA + opening BBB): 33.7 ± 2.0 days
mean survival time ([1]; IA, sham group 22.5±0.6 days): 31.0 ± 3.6 days
mean survival time ([1]; IV, sham group 22.6±1.2 days): did not significantly increase
increase of accumulation in cytoplasm of tumor cells by opening of the BBB ([2]; IA + BBBD vs IA): 4.7 fold
increase of accumulation in nucleus of tumor cells by opening of the BBB ([2]; IA + BBBD vs IA): 18 fold
Platinum in brain tumor [2, 7]: 987 ± 621 ng of platin/g tissue
Platinum in cytoplasm of tumor cells [2, 7]: 398 ± 191 ng of platin/g tissue
Platinum in healthy contra lateral brain [2, 7]: 242 ± 59 ng of platin/g tissue
Platinum in nucleus of tumor cells [2, 7]: 160 ± 85 ng of platin/g tissue
Platinum in cytoplasm of tumor cells [2, 8]: 398±191 ng of platin/g tissue
Platinum in nucleus of tumor cells [2, 8]: 160±85 ng of platin/g tissue
effect of the IA route on tumor uptake and specificity ([2]; IA vs IV, tumor vs contra lateral brain): improved both the tumor uptake and specificity
Platinum in brain tumor [2, 9]: 469 ± 241 ng of platin/g tissue
Platinum in cytoplasm of tumor cells [2, 9]: 84 ± 61 ng of platin/g tissue
Platinum in healthy contra lateral brain [2, 9]: 70 ± 48 ng of platin/g tissue
Platinum in nucleus of tumor cells [2, 9]: 9 ± 7 ng of platin/g tissue
Platinum in cytoplasm of tumor cells [2, 10]: 84±61 ng of platin/g tissue
Platinum in nucleus of tumor cells [2, 10]: 9±7 ng of platin/g tissue
uptake in the nucleus of cancer cells ([2]; IV route): ~4 ng platinum/g tissue
Platinum in brain tumor [2, 11]: 145 ± 27 ng of platin/g tissue
Platinum in cytoplasm of tumor cells [2, 11]: 13 ± 4 ng of platin/g tissue
Platinum in healthy contra lateral brain [2, 11]: 27 ± 2 ng of platin/g tissue
Platinum in nucleus of tumor cells [2, 11]: 0.5 ± 0.8 ng of platin/g tissue
mean survival time ([3]; IA + opening of BBB + radiation 15 Gy, sham group+IR 34.5±2.2 days): 38.0 ± 6.4 days
increase of mean survival time compared to the sham IR group ([3]; IA + radiation 15 Gy): 10.7 days
mean survival time ([3]; IA + radiation 15 Gy, sham group+IR 34.0±6.1 days): 44.7 ± 6.1 days

N.N.[Cl][Pt][Cl] [Cisplatin]
mean survival time ([1]; IA, sham group 22.5±0.6 days): 13.3 ± 0.1 days
mean survival time ([1]; IV, sham group 22.6±1.2 days): 18.1 ± 0.9 days
Platinum in cytoplasm of tumor cells ([2]; rat, in vivo, iv): 251 ± 48 ng of platin/g tissue
Platinum in nucleus of tumor cells ([2]; rat, in vivo, iv): 67 ± 14 ng of platin/g tissue
uptake in the nucleus of cancer cells ([2]; rat, in vivo, iv): 67±14 ng platinum/g tissue

O=C1[O][Pt]2([NH][C@@H]3CCCC[C@H]3[NH]2)[O]C1=O [Oxaliplatin]
mean survival time ([1]; IA, sham group 22.5±0.6 days): 22.0 ± 4.7 days
mean survival time ([1]; IV, sham group 22.6±1.2 days): did not significantly increase
uptake in the nucleus of cancer cells ([2]; IV route): 78±8 ng platinum/g tissue
Platinum in cytoplasm of tumor cells [2, 11]: 292 ± 128 ng of platin/g tissue
Platinum in nucleus of tumor cells [2, 11]: 78 ± 8 ng of platin/g tissue
objective responses, % of patients ([4]; 2 small trials of first-line monotherapy (Wiseman et al)): 20% and 24%
response rate ([4]; first line monotherapy, metastatic colorectal cancer patients): 24%
objective responses, % of patients ([4]; monotherapy as second-line option (Wiseman et al)): about 10%
overall response rate ([4]; monotherapy, second line, colorectal cancer, Japanese study (Boku et al)): 9%

Nc1ccn([C@@H]2O[C@H](CO)[C@@H](O)C2(F)F)c(=O)n1 [gemcitabine]
one-year survival [5]: 17%

Avastin®: humanized monoclonal antibody that binds to and inhibits human vascular endothelial growth factor (VEGF)
efficacy [6]: marginal efficacy
